Test: Applicant's experiments with FITC on liposomes (immunostimulant / detectable marker)
Settings: reagent attached to liposome exterior

fluorescein isothiocyanate [FITC]
function as immunostimulant and detectable marker: serves as both an immunostimulant and a detectable marker

— patent US20230000997A1, “PROCESSES OF PREPARING POLYGLUTAMATED ANTIFOLATES AND USES OF THEIR COMPOSITIONS” (L.E.A.F. HOLDINGS GROUP LLC, priority 2019, published 2023)
